Results taken from patent US8927517B2, “Factors controlling skin and hair color” (Kao Corporation, priority 2012, dated 2015).

Columns and labels:
[1] = tested on: Skin tissues from a donor; assay: Lightness (L* value) of cultured human skin tissue with autophagy-regulating agent; assay type: cell-based; settings: verapamil 10 μM, rapamycin 1 μM or HCQ 10 μM; cultured 8 days; colorimeter; FIG. 10
Procedure: Skin tissues were collected from a donor, and were then cultured in the presence or absence of an autophagy inducer verapamil (10 μM) or rapamycin (1 μM), or an autophagy inhibitor hydroxychloroquine (HCQ, 10 μM). After completion of the culture for 8 days, the lightness (L* value) of the cultured skin was measured with a colorimeter (Colorimeter; cyberDERM).

[2] = tested on: 3D-HSSs (three-dimensional human skin substitutes containing NHEK and NHEM); assay: 3D-HSSs cultured with autophagy inducer or inhibitor (photographs, Western blotting); assay type: cell-based; settings: HCQ 10 μM with endothelin-1 and SCF, 14 days
Procedure: Three-dimensional culture human skin models (3D-human skin substitutes; 3D-HSSs) were purchased from MatTek Co. (MEL-300A or B), and they were then maintained at 37° C. in 5% CO2 in EPI-100NMM-113 medium (MatTek Co.) according to a production manual included therewith.
3D-HSSs (three-dimensional human skin substitutes, reconstituted epidermal models containing NHEK and NHEM) were cultured together with an autophagy inducer verapamil (10 μM) or rapamycin (1 μM) for 14 days. The medium was exchanged with a fresh one every other day. After completion of the culture, Western blotting analysis was carried out on the culture, using a p62-specific antibody (MBL International) and an LC3-specific antibody (Cosmo Bio Co. Ltd. or MBL International) by the same procedures as those applied in Reference Example 1.
On the other hand, 3D-HSSs were cultured together with an autophagy inhibitor hydroxychloroquine (HCQ, 10 μM) in the presence of endothelin-1 and SCF for 14 days, and Western blotting analysis was then carried out on the culture.

SMILES | lightness (L* value) of the cultured skin [1] | darkening of 3D-HSSs ([2]; FIG. 9C) | amount of p62 ([2]; FIG. 9D)
COc1ccc(CCN(C)CCCC(C#N)(c2ccc(OC)c(OC)c2)C(C)C)cc1OC (stereo not shown) [verapamil] | increased | – | –
CCN(CCO)CCCC(C)Nc1ccnc2cc(Cl)ccc12 (stereo not shown) [hydroxychloroquine] | decreased | became darkened | increased
